Reference: ChEMBL document CHEMBL1155423, “Unprecedented NES non-antagonistic inhibitor for nuclear export of Rev from Sida cordifolia” (Bioorg Med Chem Lett, 2010)

Assay: Inhibition of CRM1 interaction with HIV1 HA-tagged Rev in HeLa cells assessed as inhibition of Rev nuclear export by indirect fluorescent antibody technique
Assay type: cell-based

First: CCCCC/C=C\C=C\C(O)CCCCCCCC(=O)O (configuration not stated)
Second: CCCCC/C=C\C=C\C(O)CCCCC(=O)O (configuration not stated)
The IC50 of the first is lower: 7.2 µM for the first, greater than 30 µM for the second. The first is the more potent here.

CCCCC/C=C\C=C\C(O)CCC(=O)O (configuration not stated) and CCCCC/C=C\C=C\C(C)O (configuration not stated) cannot be ordered by IC50: greater than 30 µM for the first, greater than 30 µM for the second.

Going from CC(O)CCCCCCCC(=O)O (configuration not stated) to CCCCCCCCCC(O)CCCCCCCC(=O)O (configuration not stated), the IC50 rises from 20.8 µM to greater than 30 µM.

In the case of CCCCC/C=C\C=C\CCCCCCCCC(=O)O, the IC50 is reported as 15 µM.
